For assay [1], the target named is Glutamate NMDA receptor; GRIN1/GRIN2B (Homo sapiens, UniProt Q05586+Q13224). Briefly: Antagonist activity at NR1/2B receptor expressed in xenopus laevis at pH 6.9 by two electrode voltage clamp method. Type of assay: functional.
Assay [2] can be described thus: Inhibition of NMDA receptor.

Each structure is given as a SMILES string.

Sequence of Glutamate NMDA receptor; GRIN1/GRIN2B (Q13224 whole entry, other chains not shown): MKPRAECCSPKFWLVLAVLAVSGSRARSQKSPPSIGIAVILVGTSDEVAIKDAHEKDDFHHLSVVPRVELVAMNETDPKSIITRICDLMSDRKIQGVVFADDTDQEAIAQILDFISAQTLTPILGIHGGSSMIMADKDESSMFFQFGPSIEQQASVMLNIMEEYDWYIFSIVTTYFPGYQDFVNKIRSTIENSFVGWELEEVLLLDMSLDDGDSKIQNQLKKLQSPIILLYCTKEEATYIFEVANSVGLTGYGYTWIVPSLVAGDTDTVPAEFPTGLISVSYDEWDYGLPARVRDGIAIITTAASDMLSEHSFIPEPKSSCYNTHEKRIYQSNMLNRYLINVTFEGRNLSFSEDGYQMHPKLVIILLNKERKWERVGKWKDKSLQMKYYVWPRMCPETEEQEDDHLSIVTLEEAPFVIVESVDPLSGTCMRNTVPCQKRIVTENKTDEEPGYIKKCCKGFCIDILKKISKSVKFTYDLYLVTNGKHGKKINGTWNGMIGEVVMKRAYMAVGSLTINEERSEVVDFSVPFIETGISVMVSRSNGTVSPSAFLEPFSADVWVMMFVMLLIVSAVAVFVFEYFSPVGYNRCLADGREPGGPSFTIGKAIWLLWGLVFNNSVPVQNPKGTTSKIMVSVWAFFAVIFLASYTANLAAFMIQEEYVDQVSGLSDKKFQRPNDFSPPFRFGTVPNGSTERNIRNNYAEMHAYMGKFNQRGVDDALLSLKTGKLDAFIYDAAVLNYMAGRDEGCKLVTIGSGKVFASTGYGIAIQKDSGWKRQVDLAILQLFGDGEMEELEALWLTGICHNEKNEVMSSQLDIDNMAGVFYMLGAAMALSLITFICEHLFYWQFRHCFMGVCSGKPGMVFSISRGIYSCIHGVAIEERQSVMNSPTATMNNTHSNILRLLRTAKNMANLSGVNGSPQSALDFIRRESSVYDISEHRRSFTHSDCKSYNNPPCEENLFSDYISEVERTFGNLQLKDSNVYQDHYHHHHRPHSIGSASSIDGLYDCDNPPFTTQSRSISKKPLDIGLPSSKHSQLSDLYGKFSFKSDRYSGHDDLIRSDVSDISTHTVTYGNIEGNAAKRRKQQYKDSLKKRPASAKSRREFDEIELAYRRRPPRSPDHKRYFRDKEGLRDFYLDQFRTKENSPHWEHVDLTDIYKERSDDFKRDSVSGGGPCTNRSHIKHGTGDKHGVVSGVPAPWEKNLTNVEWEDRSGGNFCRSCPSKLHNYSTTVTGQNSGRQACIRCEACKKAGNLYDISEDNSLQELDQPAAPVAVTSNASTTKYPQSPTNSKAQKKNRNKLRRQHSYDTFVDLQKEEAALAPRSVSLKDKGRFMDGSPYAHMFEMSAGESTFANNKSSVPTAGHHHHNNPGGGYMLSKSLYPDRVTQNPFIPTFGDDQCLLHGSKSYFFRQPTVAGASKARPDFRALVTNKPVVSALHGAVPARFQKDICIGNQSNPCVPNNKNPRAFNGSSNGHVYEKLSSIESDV

In general, IC50 refers to the concentration that inhibits the measured activity by half. In assay [1], `CN1CC[C@@]23CCCC[C@@H]2[C@@H]1Cc1ccc(O)cc13` [DEXTRORPHAN] displayed an IC50 of 246 nM.
Turning to `NCCCCCNC1(c2ccccc2)CCCCC1`, the IC50 in assay [2] was 2100 nM. This counts as single-digit micromolar.

The values are drawn from ChEMBL document CHEMBL1157497, “Theoretical studies on the structure and symmetry of the transmembrane region of glutamatergic GluR5 receptor” (J Med Chem, 2008).
